# Reference: patent US20070189973A1, “Contrast medium comprising liposomes containing hydrophobic chelate compound” (priority 2003, published 2007)
# Test system: vascular smooth muscle cells
# Experiment: Uptake amount of chelate compound by vascular smooth muscle cells (mixed culture with macrophages)
# Type: cell-based
# Conditions: liposome preparation PC: 50 nmol+PS: 50 nmol+Compound 1: 75 nmol; mixed culture system of vascular smooth muscle cells and macrophage; 37° C., 5% CO2, 24 hours
# Description: Uptake Amount of Chelate Compound by Vascular Smooth Muscle Cells
# Dipalmitoyl-PC (Funakoshi, No. 1201-41-0225) and dipalmitoyl-PS (Funakoshi, No. 1201-42-0237) at the ratio shown below were dissolved in chloroform together with a hydrophobic chelate compound (Compound 1 specifically shown above as a preferred compound) in an eggplant-shaped flask according to the method described in J. Med. Chem., 25 (12), 1500 (1982) to form a uniform solution. Then, the solvent was evaporated under reduced pressure to form a thin membrane on the bottom of the flask bottom. This thin membrane was dried in vacuum, then added with an appropriate amount of 0.9% physiological saline (Hikari Pharmaceutical, No. 512) and subjected to ultrasonication (No. 3542 probe type oscillator, Branson, 0.1 mW) for 5 minutes to obtain a uniform liposome dispersion. The diameters of the liposomes in the resulting dispersion were measured by using WBC analyzer (A-1042, Nihon Kohden). […] The liposome preparation mentioned below, which was produced by the above method, was added to a mixed culture system of vascular smooth muscle cells and macrophage described in International Publication WO 01/82977. The cells were cultured at 37° C. under 5% CO2 for 24 hours, and the amount of the chelate compound taken up into the vascular smooth muscle cells was quantified.
# PC: 50 nmol+PS: 50 nmol+Compound 1: 75 nmol […]
smiles,measurement,value
CC(C)CCCC(C)C1CCC2C3C=CC4CC(OC(=O)COC(=O)CN(CCN(CC(=O)O)CC(=O)O)CCN(CC(=O)O)CC(=O)O)CCC4(C)C3CCC12C (stereo not shown) [Compound 1],Amount taken up by vascular smooth muscle cells,20 nmol/mg protein
